Assay results: patent publication US10618918B2, “Substituted boronic acids as antimicrobials” (priority 2015, dated 2020)
Where two headings read alike, the source gives them in different places.

Experiments:
ec308 SHV-5 = experiment: Aztreonam potentiation (MPC@4), strain ec308 SHV-5; details: minimum BLI concentration inhibiting growth with aztreonam 4 μg/mL; tested up to 40 μg/mL
KP1086 OXA-48 = experiment: Biapenem potentiation (MPC@1), strain KP1086 OXA-48; assay type: cell-based; details: minimum BLI concentration inhibiting growth with biapenem 1 μg/mL; tested up to 40 μg/mL
Procedure: (§1) Biapenem was present in the test medium at 1 μg/mL. […] Table 3 summarizes the BLI potency of biapenem potentiation (MPC@1) for two strains overexpressing class A (KPC) and class D (OXA-48) carbapenemases. Biapenem MIC for each strain is also shown.

ECL1002 = experiment: Aztreonam potentiation (MPC@4), strain ECL1002; details: minimum BLI concentration inhibiting growth with aztreonam 4 μg/mL; tested up to 40 μg/mL
KP1010 SHV-12 = experiment: Aztreonam potentiation (MPC@4), strain KP1010 SHV-12; details: minimum BLI concentration inhibiting growth with aztreonam 4 μg/mL; tested up to 40 μg/mL
KP1005 CTX-M-14 = experiment: Tigemonam potentiation (MPC@4), strain KP1005 CTX-M-14; details: minimum BLI concentration inhibiting growth with tigemonam 4 μg/mL; tested up to 40 μg/mL
AB1054 OXA-23 = experiment: Meropenem potentiation (MPC@8), strain AB1054 OXA-23; assay type: cell-based, Acinetobacter baumannii; details: minimum BLI concentration inhibiting growth with meropenem 8 μg/mL; tested up to 20 μg/mL
KP1004 KPC-2 [1] = experiment: Biapenem potentiation (MPC@1), strain KP1004 KPC-2; assay type: cell-based; details: minimum BLI concentration inhibiting growth with biapenem 1 μg/mL; tested up to 40 μg/mL
Procedure: as §1

[2] = biological target: purified class A, C and D enzymes (β-lactamases) (Klebsiella pneumoniae, UniProt Q6XEC0); experiment: biochemical; assay type: biochemical; details: purified OXA-48; nitrocefin (NCF) as reporter substrate
[3] = biological target: T1, purified class A, C and D enzymes (β-lactamases) (Pseudomonas aeruginosa, UniProt P24735); experiment: biochemical; assay type: biochemical
T1 construct: rows headed: Ki (Pa-AmpC, NCF), uM; other: purified Pa-AmpC; nitrocefin (NCF) as reporter substrate
T1 sequence (P24735 whole entry): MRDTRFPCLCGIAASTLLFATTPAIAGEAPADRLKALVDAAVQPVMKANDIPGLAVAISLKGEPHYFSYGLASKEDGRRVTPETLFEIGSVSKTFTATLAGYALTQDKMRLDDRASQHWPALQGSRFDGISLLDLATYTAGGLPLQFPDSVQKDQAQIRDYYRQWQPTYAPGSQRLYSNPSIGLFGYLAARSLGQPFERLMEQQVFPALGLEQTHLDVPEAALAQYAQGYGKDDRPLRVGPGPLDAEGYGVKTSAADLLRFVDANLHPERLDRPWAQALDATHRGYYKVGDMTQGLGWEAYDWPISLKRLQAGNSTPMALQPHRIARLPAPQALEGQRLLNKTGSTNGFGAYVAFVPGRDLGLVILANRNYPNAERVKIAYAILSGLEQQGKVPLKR

[4] = biological target: purified class A, C and D enzymes (β-lactamases) (Klebsiella pneumoniae, UniProt Q9F663); experiment: biochemical; assay type: biochemical; details: purified KPC-2; nitrocefin (NCF) as reporter substrate
[5] = biological target: purified class A, C and D enzymes (β-lactamases) (Enterobacter cloacae, UniProt P05364); experiment: biochemical; assay type: biochemical
Sequence of purified class A, C and D enzymes (β-lactamases) (Enterobacter cloacae, UniProt P05364) (P05364 21-381): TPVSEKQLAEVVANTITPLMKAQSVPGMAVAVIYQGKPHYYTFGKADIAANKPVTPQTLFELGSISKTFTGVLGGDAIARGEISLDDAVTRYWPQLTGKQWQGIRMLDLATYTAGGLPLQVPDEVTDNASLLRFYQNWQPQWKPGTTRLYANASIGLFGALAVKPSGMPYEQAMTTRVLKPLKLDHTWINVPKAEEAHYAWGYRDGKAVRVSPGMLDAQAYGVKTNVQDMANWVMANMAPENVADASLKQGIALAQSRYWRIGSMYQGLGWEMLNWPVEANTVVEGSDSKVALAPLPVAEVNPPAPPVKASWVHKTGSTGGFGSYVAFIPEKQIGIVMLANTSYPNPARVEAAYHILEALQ

[6] = biological target: T2, purified class A, C and D enzymes (β-lactamases) (Acinetobacter baumannii, UniProt Q9L4P2); experiment: biochemical; assay type: biochemical; details: purified OXA-23; nitrocefin (NCF) as reporter substrate
T2 construct: rows headed: Ki (OXA-23, NCF), uM; other: purified OXA-23; nitrocefin (NCF) as reporter substrate
T2 sequence (Q9L4P2 whole entry): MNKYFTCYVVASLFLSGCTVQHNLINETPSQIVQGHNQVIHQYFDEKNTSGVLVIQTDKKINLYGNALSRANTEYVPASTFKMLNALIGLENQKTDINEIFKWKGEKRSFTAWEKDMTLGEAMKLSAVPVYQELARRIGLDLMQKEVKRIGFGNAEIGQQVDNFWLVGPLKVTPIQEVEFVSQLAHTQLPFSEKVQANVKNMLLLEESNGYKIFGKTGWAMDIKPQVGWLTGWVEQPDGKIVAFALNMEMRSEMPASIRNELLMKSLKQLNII

[7] = biological target: purified class A, C and D enzymes (β-lactamases) (Escherichia coli, UniProt Q9L5C7); experiment: biochemical; assay type: biochemical; details: purified CTX-M-14; nitrocefin (NCF) as reporter substrate
Sequence of purified class A, C and D enzymes (β-lactamases) (Escherichia coli, UniProt Q9L5C7) (Q9L5C7 entry or part of it): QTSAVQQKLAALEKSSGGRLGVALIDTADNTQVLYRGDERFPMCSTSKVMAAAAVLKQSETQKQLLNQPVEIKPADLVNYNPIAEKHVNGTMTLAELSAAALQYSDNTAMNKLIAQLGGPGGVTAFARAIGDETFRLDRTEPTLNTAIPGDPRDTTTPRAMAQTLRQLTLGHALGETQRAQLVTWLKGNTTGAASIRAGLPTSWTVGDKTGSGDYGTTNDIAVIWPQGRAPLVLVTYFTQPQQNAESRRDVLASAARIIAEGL

[8] = biological target: T3, purified class A, C and D enzymes (β-lactamases) (UniProt P0AD64, L31Q/G234S/E235K, species not given); experiment: biochemical; assay type: biochemical
T3 construct: Ki (SHV-12, NCF), uM; other: purified SHV-12; nitrocefin (NCF) as reporter substrate
T3 sequence (P0AD64 1-286 L31Q/G234S/E235K): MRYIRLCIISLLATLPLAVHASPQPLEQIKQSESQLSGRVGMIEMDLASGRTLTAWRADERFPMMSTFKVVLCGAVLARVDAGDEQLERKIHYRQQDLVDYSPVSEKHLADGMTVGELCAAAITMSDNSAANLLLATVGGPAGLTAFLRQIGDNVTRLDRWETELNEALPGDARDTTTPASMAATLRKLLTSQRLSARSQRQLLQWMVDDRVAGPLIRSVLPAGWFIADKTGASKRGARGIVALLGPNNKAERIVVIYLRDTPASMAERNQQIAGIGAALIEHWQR

KP1004 KPC-2 [9] = experiment: Aztreonam potentiation (MPC@4), strain KP1004 KPC-2; details: minimum BLI concentration inhibiting growth with aztreonam 4 μg/mL; tested up to 40 μg/mL
KP1009 CTX-M-15 = experiment: Aztreonam potentiation (MPC@4), strain KP1009 CTX-M-15; details: minimum BLI concentration inhibiting growth with aztreonam 4 μg/mL; tested up to 40 μg/mL
ec302 TEM-10 = experiment: Aztreonam potentiation (MPC@4), strain ec302 TEM-10; details: minimum BLI concentration inhibiting growth with aztreonam 4 μg/mL; tested up to 40 μg/mL
AB1053 OXA-72 = experiment: Meropenem potentiation (MPC@8), strain AB1053 OXA-72; assay type: cell-based, Acinetobacter baumannii; details: minimum BLI concentration inhibiting growth with meropenem 8 μg/mL; tested up to 20 μg/mL
EC1010 CMY-6 = experiment: Aztreonam potentiation (MPC@4), strain EC1010 CMY-6; details: minimum BLI concentration inhibiting growth with aztreonam 4 μg/mL; tested up to 40 μg/mL
[10] = read-out: Ki (SHV-12, NCF); purified SHV-12; nitrocefin (NCF) as reporter substrate
[11] = purified Pa-AmpC, nitrocefin (NCF) as reporter substrate, read-out: Ki (Pa-AmpC, NCF)
[12] = purified P99, nitrocefin (NCF) as reporter substrate

Row | Structure (SMILES) | AZT MPC4 SHV-5 ec308 (ec308 SHV-5) | BPM MPC1 OXA-48 KP1086 (KP1086 OXA-48) | AZT MPC4 ECL1002 (ECL1002) | AZT MPC4 SHV-12 KP1010 (KP1010 SHV-12) | TIG MPC4 CTX-M-14 KP1005 (KP1005 CTX-M-14) | MPM MPC8 AB1054 OXA-23 (AB1054 OXA-23) | BPM MPC1 KP1004 KPC-2 (KP1004 KPC-2 [1]) | Ki (OXA-48, NCF), uM [2] | Ki [3] [nM] | Ki (KPC-2, NCF), uM [4] | Ki (P99, NCF), uM [5] | Ki [6] [nM] | Ki (CTX-M-14, NCF), uM [7] | AZT MPC4 KPC-2 KP1004 (KP1004 KPC-2 [9]) | AZT MPC4 CTX-M-15 KP1009 (KP1009 CTX-M-15) | AZT MPC4 TEM-10 ec302 (ec302 TEM-10) | MPM MPC8 AB1053 OXA-72 (AB1053 OXA-72) | AZT MPC4 CMY-6 EC1010 (EC1010 CMY-6) | Ki [3, 11] [nM] | Ki (P99, NCF), uM [5, 12] | further results
1 | O=C([O-])c1c(OC(F)F)ccc2c1O[B-](O)(O)CC2.[Na+].[Na+] [Compound 56, Disodium; 8-(difluoromethoxy)-4,4-dihydroxy-5-oxa-4-boranuidabicyclo[4.4.0]deca-1(6),7,9-triene-7-carboxylate] | X (X = MPC@4 ≤ 5 μg/mL) | X (X = MPC@1 ≤ 5 μg/mL) | X (X = MPC@4 ≤ 5 μg/mL) | X (X = MPC@4 ≤ 5 μg/mL) | X (X = MPC@4 ≤ 5 μg/mL) | X (X = MPC@1 ≤ 5 μg/mL) | X (X = MPC@1 ≤ 5 μg/mL) | X (X = Ki ≤ 0.1 μM) | < 100 | X (X = Ki ≤ 0.1 μM) | X (key: X = Ki ≤ 0.1 μM; Y = 0.1 μM < Ki ≤ 1 μM; Z = Ki > 1 μM) | < 100 | X (X = Ki ≤ 0.1 μM) | X (X = MPC@4 ≤ 5 μg/mL) | X (X = MPC@4 ≤ 5 μg/mL) | X (X = MPC@4 ≤ 5 μg/mL) | X (X = MPC@1 ≤ 5 μg/mL) | X (X = MPC@4 ≤ 5 μg/mL) | – | – | Ki [8, 10]: < 100 nM
2 | C#CCOc1ccc2c(c1C(=O)O)OB(O)CC2 [Compound 25, 2-Hydroxy-7-prop-2-ynoxy-3,4-dihydro-1,2-benzoxaborinine-8-carboxylic acid] | X (X = MPC@4 ≤ 5 μg/mL) | X (X = MPC@1 ≤ 5 μg/mL) | X (X = MPC@4 ≤ 5 μg/mL) | X (X = MPC@4 ≤ 5 μg/mL) | Z (Z = MPC@4 > 20 μg/mL) | X (X = MPC@1 ≤ 5 μg/mL) | X (X = MPC@1 ≤ 5 μg/mL) | X (X = Ki ≤ 0.1 μM) | – | X (X = Ki ≤ 0.1 μM) | – | < 100 | X (X = Ki ≤ 0.1 μM) | X (X = MPC@4 ≤ 5 μg/mL) | X (X = MPC@4 ≤ 5 μg/mL) | X (X = MPC@4 ≤ 5 μg/mL) | X (X = MPC@1 ≤ 5 μg/mL) | X (X = MPC@4 ≤ 5 μg/mL) | < 100 | X (X = Ki ≤ 0.1 μM) | Ki ([8]; purified SHV-12; nitrocefin (NCF) as reporter substrate; read-out: Ki (SHV-12, NCF)): < 100 nM
3 | C[C@@H]1Cc2cccc(C(=O)[O-])c2O[B-]1(O)O.[Na+].[Na+] [Compound 10, Disodium; (3R)-4,4-dihydroxy-3-methyl-5-oxa-4-boranuidabicyclo[4.4.0]deca-1(6),7,9-triene-7-carboxylate] | Z (Z = MPC@4 > 20 μg/mL) | Y (Y = 5 μg/mL < MPC@1 ≤ 20 μg/mL) | Z (Z = MPC@4 > 20 μg/mL) | Y (Y = 5 μg/mL < MPC@4 ≤ 20 μg/mL) | Z (Z = MPC@4 > 20 μg/mL) | Z (Z = MPC@1 > 20 μg/mL) | X (X = MPC@1 ≤ 5 μg/mL) | X (X = Ki ≤ 0.1 μM) | < 100 | X (X = Ki ≤ 0.1 μM) | Y (key: X = Ki ≤ 0.1 μM; Y = 0.1 μM < Ki ≤ 1 μM; Z = Ki > 1 μM) | > 1000 | X (X = Ki ≤ 0.1 μM) | Y (Y = 5 μg/mL < MPC@4 ≤ 20 μg/mL) | Z (Z = MPC@4 > 20 μg/mL) | Z (Z = MPC@4 > 20 μg/mL) | Z (Z = MPC@1 > 20 μg/mL) | Z (Z = MPC@4 > 20 μg/mL) | – | – | Ki [8, 10]: 100 to 1000 nM
4 | O=C([O-])c1c(CO)ccc2c1O[B-](O)(O)CC2.[Na+].[Na+] [Compound 49, Disodium; 4,4-dihydroxy-8-(hydroxymethyl)-5-oxa-4-boranuidabicyclo[4.4.0]deca-1(6),7,9-triene-7-carboxylate] | X (X = MPC@4 ≤ 5 μg/mL) | X (X = MPC@1 ≤ 5 μg/mL) | X (X = MPC@4 ≤ 5 μg/mL) | X (X = MPC@4 ≤ 5 μg/mL) | X (X = MPC@4 ≤ 5 μg/mL) | Y (Y = 5 μg/mL < MPC@1 ≤ 20 μg/mL) | X (X = MPC@1 ≤ 5 μg/mL) | X (X = Ki ≤ 0.1 μM) | < 100 | X (X = Ki ≤ 0.1 μM) | X (key: X = Ki ≤ 0.1 μM; Y = 0.1 μM < Ki ≤ 1 μM; Z = Ki > 1 μM) | < 100 | X (X = Ki ≤ 0.1 μM) | X (X = MPC@4 ≤ 5 μg/mL) | X (X = MPC@4 ≤ 5 μg/mL) | X (X = MPC@4 ≤ 5 μg/mL) | Y (Y = 5 μg/mL < MPC@1 ≤ 20 μg/mL) | X (X = MPC@4 ≤ 5 μg/mL) | – | – | –
5 | O=C(O)c1c(CNc2nncs2)ccc2c1OB(O)CC2 [Compound 64, 2-Hydroxy-7-[(1,3,4-thiadiazol-2-ylamino)methyl]-3,4-dihydro-1,2-benzoxaborinine-8-carboxylic acid] | X (X = MPC@4 ≤ 5 μg/mL) | Y (Y = 5 μg/mL < MPC@1 ≤ 20 μg/mL) | X (X = MPC@4 ≤ 5 μg/mL) | X (X = MPC@4 ≤ 5 μg/mL) | Y (Y = 5 μg/mL < MPC@4 ≤ 20 μg/mL) | Y (Y = 5 μg/mL < MPC@1 ≤ 20 μg/mL) | X (X = MPC@1 ≤ 5 μg/mL) | X (X = Ki ≤ 0.1 μM) | – | X (X = Ki ≤ 0.1 μM) | – | < 100 | X (X = Ki ≤ 0.1 μM) | X (X = MPC@4 ≤ 5 μg/mL) | X (X = MPC@4 ≤ 5 μg/mL) | X (X = MPC@4 ≤ 5 μg/mL) | Y (Y = 5 μg/mL < MPC@1 ≤ 20 μg/mL) | X (X = MPC@4 ≤ 5 μg/mL) | < 100 | X (X = Ki ≤ 0.1 μM) | –
6 | O=C(O)c1c(F)ccc2c1OB(O)COC2 [Compound 58, 8-Fluoro-2-hydroxy-3,5-dihydro-1,4,2-benzodioxaborepine-9-carboxylic acid] | Z (Z = MPC@4 > 20 μg/mL) | X (X = MPC@1 ≤ 5 μg/mL) | X (X = MPC@4 ≤ 5 μg/mL) | Y (Y = 5 μg/mL < MPC@4 ≤ 20 μg/mL) | Z (Z = MPC@4 > 20 μg/mL) | Z (Z = MPC@1 > 20 μg/mL) | X (X = MPC@1 ≤ 5 μg/mL) | X (X = Ki ≤ 0.1 μM) | – | X (X = Ki ≤ 0.1 μM) | – | 100 to 1000 | X (X = Ki ≤ 0.1 μM) | X (X = MPC@4 ≤ 5 μg/mL) | Z (Z = MPC@4 > 20 μg/mL) | Z (Z = MPC@4 > 20 μg/mL) | Z (Z = MPC@1 > 20 μg/mL) | X (X = MPC@4 ≤ 5 μg/mL) | < 100 | X (X = Ki ≤ 0.1 μM) | –
